Results on five compounds are retold here after ChEMBL document CHEMBL1201862, “PubChem BioAssay data set” (2004).

Test systems include SR; COLO 205; MCF7; SK-MEL-5; NCI/ADR-RES; SK-OV-3; CCRF-CEM; SF-268; HL-60; SK-MEL-28; HCT-15; A549; A498; NCI-H23; UO-31; SN12C; NCI-H522; RXF 393; Malme-3M.
Common to all, as to test: growth of human tumour cells (NCI), 48 h

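Test compounds were applied to cells in 96-well plates for 48 hours at 5 doses. GI50 marks 50% less growth.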 Active and inactive are the calls of the source. Cut-off read from the data, not from the text of the source: active = GI50 up to about 1.1 µM and inactive = higher. Bounds are passed on as bounds.

As for `NC(=S)Nc1nc(=S)[nH]c2[nH]ccc12`, the GI50 was 29.4 µM (inactive) in the experiment with SR; 82.4 µM (inactive) in the experiment on COLO 205; 91.2 µM (inactive) in the experiment on MCF7; 15.3 µM (inactive) with SK-MEL-5; > 100 µM (inactive) with NCI/ADR-RES; > 100 µM (inactive) in the experiment on SK-OV-3. Moreover, the GI50 with CCRF-CEM was 24.2 µM (inactive); in the experiment with SF-268 it was 20.2 µM (inactive); in the experiment with HL-60 it was 19.1 µM (inactive); in the experiment on SK-MEL-28, > 100 µM (inactive); in the experiment with HCT-15 it was 41.7 µM; in the experiment on A549, > 100 µM (inactive). The GI50 was > 100 µM (inactive) in the experiment with A498, > 100 µM (inactive) in the experiment on NCI-H23, 66.7 µM (inactive) in the experiment with UO-31 and > 100 µM (inactive) with SN12C.

As for `COC(=O)Nc1nc2cc(NC(=O)c3ccc(I)cc3)ccc2[nH]1`, the GI50 in the experiment on NCI-H522 is 24.7 µM (inactive); in the experiment on COLO 205, > 100 µM (inactive); in the experiment with MCF7, > 100 µM (inactive); in the experiment on SK-MEL-5 it was > 100 µM (inactive); in the experiment on NCI/ADR-RES, > 100 µM (inactive); in the experiment with SK-OV-3, > 100 µM (inactive). Further, the GI50 with CCRF-CEM was > 100 µM (inactive); in the experiment with SF-268 it was > 100 µM (inactive); in the experiment with HL-60, > 100 µM (inactive); in the experiment with SK-MEL-28 it was > 100 µM (inactive); in the experiment on HCT-15, > 100 µM; in the experiment with A549, > 100 µM (inactive). Also, the GI50 in the experiment with RXF 393 was > 100 µM (inactive); with Malme-3M, 72.6 µM (inactive); in the experiment on A498 it was > 100 µM (inactive); in the experiment with NCI-H23, > 100 µM (inactive); in the experiment with UO-31, > 100 µM (inactive); with SN12C, > 100 µM (inactive).

Take `CC1CN=C(N(C)C(=O)Nc2ccc(Cl)c(Cl)c2)S1` (centres undefined): the GI50 with SR was 29.2 µM (inactive); in the experiment with COLO 205 it was 40.8 µM (inactive); in the experiment with MCF7, 19.3 µM (inactive); with SK-MEL-5 it was 15.7 µM (inactive); in the experiment on NCI/ADR-RES it was 14.4 µM (inactive); in the experiment on SK-OV-3 it was > 100 µM (inactive). Besides, the GI50 in the experiment on CCRF-CEM is 33.3 µM (inactive); with SF-268 it was 27.9 µM (inactive); in the experiment on HL-60 it was 22.5 µM (inactive); in the experiment on SK-MEL-28, 16.6 µM (inactive); with HCT-15 it was 21.3 µM; in the experiment on A549, 27.7 µM (inactive). In addition, the GI50 with Malme-3M was 46.5 µM (inactive); with A498, 48.4 µM (inactive); with NCI-H23 it was 32.3 µM (inactive); in the experiment with UO-31 it was 29.5 µM (inactive); in the experiment on SN12C it was 26.5 µM (inactive).

Regarding `CCN(CC)CCNc1nc(N)c(C#N)c(C#N)c1C#N`, the GI50 in the experiment with NCI-H522, in the experiment with COLO 205, with MCF7, in the experiment with SK-MEL-5, in the experiment on NCI/ADR-RES and in the experiment with SK-OV-3 was > 10 µM (inactive) in each case. For the same compound, the GI50 was > 10 µM (inactive) with CCRF-CEM; > 10 µM (inactive) in the experiment with SF-268; > 10 µM (inactive) in the experiment with HL-60; > 10 µM (inactive) in the experiment on SK-MEL-28; > 10 µM with HCT-15; > 10 µM (inactive) with A549. The GI50 in the experiment with RXF 393, in the experiment with Malme-3M, with A498, in the experiment on NCI-H23, with UO-31 and in the experiment with SN12C was > 10 µM (inactive) each time.

With `CC(C)CC1[C@@H](OCc2ccccc2)COS(=O)N1Cc1ccccc1` (some centres undefined), the GI50 is 19.9 µM (inactive) in the experiment on SR; 57 µM (inactive) with COLO 205; 41.9 µM (inactive) with MCF7; 33.5 µM (inactive) in the experiment on SK-MEL-5; 49.4 µM (inactive) in the experiment on NCI/ADR-RES; > 100 µM (inactive) in the experiment on SK-OV-3. The GI50 with CCRF-CEM was 57.1 µM (inactive); with SF-268, 32.6 µM (inactive); in the experiment with SK-MEL-28 it was 51.3 µM (inactive); in the experiment on HCT-15, 30.8 µM; with A549, 46.6 µM (inactive); in the experiment with Malme-3M, 23.3 µM (inactive). Moreover, the GI50 in the experiment with NCI-H23 was 39.6 µM (inactive); in the experiment on UO-31, 34.6 µM (inactive); in the experiment with SN12C, 57.8 µM (inactive).
